≈ marks a conversion by molar mass, not a printed value.
Tested on: cells originated from human mouth tumor (KB-cells)
Experiment: Test on inhibition of proliferation using cells originated from human mouth tumor (KB-cells)
Assay type: cell-based
Details: 96 h, stationary culture at 37°C for 4 days, Trypan Blue staining, surviving cell number relative to control
Experimental: The cells originated from human mouth tumor (KB-cells) were added to Eagle's MEM culture solution containing 10% bovine fetal serum, the number of cells in the culture solution was adjusted to […] cells/ml, a solution in ethanol of the compound of the present invention was added to give a concentration of 5µg/ml or less (3 compounds) and the mixture subjected to stationary culture at 37°C for 4 days. As a control, a culture solution containing 0.1% of ethanol was similarly cultured. After the culture, the cells were
stained by the Trypan Blue staining method, and the surviving cell number was measured to determine the IC50 value from the degree of inhibition relative to the control. Compounds are identified by the Example (described hereinafter) in which they are prepared.

Compound | IC50 [µg/mL]
CCCCC[C@H](O)/C=C/[C@H]1C(=O)C[C@H](O)[C@@H]1C/C=C\CCCCOC(=O)C=C(C)C [Compound 1, 1-O-(3,3-dimethylacryloyl)-PGD2 alcohol] | 2.1 (≈ 4.99 µM)
CCCCCC=CC=C1C(=O)C=C[C@@H]1C/C=C\CCCCO [Compound 2, (5Z,14EZ)-11-oxoprosta-5,9,12,14-tetraen-1-ol] | < 1
CCCCCC=CC=C1C(=O)C=CC1CC=CCCCCOC(C)=O (stereo not drawn) [Compound 3, (5Z,14EZ)-1-0-acetyl-11-oxoprosta-5,9,12,14-tetraen-l-ol] | 1.6 (≈ 4.64 µM)
CCCCC[C@H](O)/C=C/[C@H]1C(=O)C=C[C@@H]1C/C=C\CCCCOC(N)=O [Compound 1(c)] | 1.1 (≈ 3.03 µM)

Source: patent EP0171441A1, “Prostaglandin analogues, processes for their preparation and compositions containing them” (ONO PHARMACEUTICAL CO., LTD., priority 1984, dated 1986)
